The source of these data is paper PMC12040169 (PLOS Biology, 2025).

The series can be described thus: in vitro. The note with it: human, hela cells, % viability.
Consider `COc1cc(C(=O)Nc2ccccc2C(=O)N2CCN(C)CC2)cc(OC)c1OC` [CBK269803], for which the viability (as a rule, a read-out of living cells in per cent, often relative to untreated cells) at 28.5 h, 10 µM amounted to 88.5%. Consider `O=C(O)c1cc(NC/C=C/c2ccccc2)ccc1N1CCOCC1` [CBK269806], for which the viability at 28.5 h, 10 µM came to 106%.

Consider `O=C1Nc2ccccc2Oc2ccc(S(=O)(=O)N3CCOCC3)cc21` [CBK269807], for which the viability at 28.5 h, 10 µM worked out at 75.5%. In the case of `O=c1c2c3c(sc2ncn1Cc1nn[nH]n1)CCCC3` [CBK269808], the viability at 28.5 h, 10 µM was 83.9%. `O=C(c1cccc(-c2nnc(-c3ccccc3)o2)c1)N1CCN(C(=O)c2ccco2)CC1` [CBK269809]: the viability at 28.5 h, 10 µM stood at 78.5%. For the compound `Cc1cc(C)n(-c2nc(NC(C)(C)C)nc(N3CCOCC3)n2)n1` [CBK269810], the viability at 28.5 h, 10 µM is 85.5%. Consider `CC(=O)C(Sc1nc(NC(C)C)nc(N(C)C)n1)C(C)=O` [CBK269811], for which the viability at 28.5 h, 10 µM worked out at 90.8%. Take `COc1ccc(Cl)cc1-c1noc(Cn2nc(C)c(Cl)c2C)n1` [CBK269813]: the viability at 28.5 h, 10 µM was found to be 92.1%. The figure for `O=C(O)c1cc(NC(=O)C2CCCO2)ccc1O` (stereo not drawn) [CBK269815] is 99%; for `Cc1ccc(CNC(=O)COc2ccc(S(=O)(=O)N3CCOCC3)cc2)cc1` [CBK269816] it is 87.8%.

`Cn1cccc1CNCc1ccccn1` [CBK269818C]: the viability at 28.5 h, 10 µM came out at 96%.

`NS(=O)(=O)c1ccc(CCNCc2ccc3c(c2)OCO3)cc1` [CBK269819C]: the viability at 28.5 h, 10 µM was 88.5%. As to `Cc1cn2c3c(=O)n(CCN4CCCCC4)c(=O)n(C)c3nc2n1CC1CCCO1` (stereo not drawn) [CBK269820], the viability at 28.5 h, 10 µM was 91.9%. Turning to `CCOC(=O)C1CCN(S(=O)(=O)c2ccc(NC(=O)N3CCCC3)cc2)CC1` [CBK269823], the viability at 28.5 h, 10 µM is 100%. The figure for `OCCC1CNCCN1Cc1ccc(F)c(F)c1` (stereo not drawn) [CBK269824] is 85.6%. As to `CSc1nsc(SCC(=O)Nc2ccccc2C#N)n1` [CBK269826], the viability at 28.5 h, 10 µM is 95.1%. Regarding `CS(=O)(=O)Nc1ccc(C(=O)N2CC(=O)Nc3ccccc32)cc1` [CBK269827], the viability at 28.5 h, 10 µM worked out at 90.8%. With `COc1cc(C)nc(NC(=O)Nc2cccc(Cl)c2)n1` [CBK269828] the figure was 94.2%; with `CC(=O)c1c(C)nn(CCC(=O)Nc2ccc(Cl)c(Cl)c2)c1C` [CBK269829], 99.3%; with `O=C(Nc1ccccc1)N(Cc1nc(-c2ccccc2)no1)C1CCCCC1` [CBK269830], 93.2%. With `O=C(O)CSc1nc2ccccc2n2cnnc12` [CBK269831], the viability at 28.5 h, 10 µM was 92.8%.

Regarding `CSc1nsc(SCC(=O)Nc2cccc(NC(C)=O)c2)n1` [CBK269833], the viability at 28.5 h, 10 µM stood at 93.2%.

Consider `Cc1cc(CNC(=O)c2cc3ccccc3oc2=O)c2ccccc2n1` [CBK269834], for which the viability at 28.5 h, 10 µM turned out to be 94.2%. The figure for `COc1ccc(Cl)cc1S(=O)(=O)N1CCC(C(=O)NCCCO)CC1` [CBK269835] is 99%; for `COc1ccc(S(=O)(=O)NCCN2CCOCC2)cc1Br` [CBK269838] it is 91.4%.

Turning to `COc1nc2ccccc2nc1CCc1nc(-c2ccccc2)no1` [CBK269840], the viability at 28.5 h, 10 µM is 86%. The figure for `c1ccc2c(c1)nc(N1CCOCC1)n2CCN1CCOCC1` [CBK269841] is 99.6%.

As to `Cc1ccc(CN2CCNCC2CCO)o1` (stereo not drawn) [CBK269844], the viability at 28.5 h, 10 µM amounted to 92.3%. Turning to `O=C(Nc1cccnc1)c1cccc(S(=O)(=O)N2CCCC2)c1` [CBK269846], the viability at 28.5 h, 10 µM was determined as 93.3%. With `CCNC(=O)N1C(CC(=O)Nc2cccc(OC)c2)C(=O)NC2CCCCC21` (stereo not drawn) [CBK269848] the figure was 90.6%; with `COc1ccccc1CNCCc1ccc(S(N)(=O)=O)cc1` [CBK269852C], 99.7%. On to `COc1ccc(Cl)cc1C(=O)Nc1cnn(CCCC(=O)O)c1` [CBK269855], for which the viability at 28.5 h, 10 µM was found to be 80.7%. As for `O=C(CCC1COc2ccccc2O1)Nc1ccc(C(=O)O)cc1` (stereo not drawn) [CBK269856], the viability at 28.5 h, 10 µM is 89.7%.
